Experimental data taken from patent US12312579B2, “Method for culturing H. pylori for future testing” (BioSherpa, LLC, priority 2019, dated 2025).
Converted amounts (≈) assume the structure as drawn.

What was measured:
Klebsiella oxytoca = test: Antibiotic sensitivity (MIC) of Klebsiella oxytoca isolated from sputum, Example 2; format: cell-based; conditions: for Interps / MIC: Klebsiella oxytoca isolate from experimental sputum sample
S. aureus [1] = test: Antibiotic sensitivity (MIC) of S. aureus grown from bone incubated in the transport system, Example 3; format: cell-based, Staphylococcus aureus; conditions: for MIC: unit assumed
Method: FIG. 5L illustrates another view of the cultures. […] The sample was incubated for 24 hours at 37 degrees Celsius. […] While not being bound to a specific theory, the native bone may sequester sessile infection in biofilms, especially in relatively devitalized bone associated with vasculopathy. Incubation in mucolytic allows for breakdown of the biofilm and the glycerol broth allows for a nutritive environment to coax these recalcitrant organisms into a cultivable state.

S. aureus [2] = test: Antibiotic sensitivity (MIC) of 5/14 sputum culture isolate, Example 4; format: cell-based, Staphylococcus aureus; conditions: 5/14 Sputum cx
Text: (§1) The original culture taken on 5/5 (finalized on 5/7) was identical to a subsequent culture taken on 5/14 that only grew MRSA.

MRSA [3] = test: Antibiotic sensitivity (MIC) of 5/5 sputum culture isolate, Example 4; format: cell-based, Staphylococcus aureus; conditions: 5/5 Sputum cx, Positive for MRSA
Text: (§2) FIG. 5M illustrates the use of systems and methods to isolate MRSA in sputum allowing for faster initiation of anti-MRSA therapy and clinical cure. This patient was intubated for hypoxemia and pneumonia. The patient placed on ceftriaxone and azithromycin. The systems and methods allowed identification of MRSA in the patient's sputum.
as §1

Staphylococcus aureus = test: Antibiotic sensitivity (MIC) of original blood culture isolate, Example 3; format: cell-based; conditions: Rare Colonies Staphylococcus aureus
Method: While not being bound to a specific theory, the native bone may sequester sessile infection in biofilms, especially in relatively devitalized bone associated with vasculopathy. Incubation in mucolytic allows for breakdown of the biofilm and the glycerol broth allows for a nutritive environment to coax these recalcitrant organisms into a cultivable state.

S. Pneumoniae = test: Antibiotic sensitivity pattern (MIC) of S. pneumoniae isolated from sputum, Example 1; format: cell-based, Streptococcus pneumoniae; conditions: for Interpretation / MIC: S. pneumoniae isolate from experimental sputum sample; for MIC: unit assumed
Text: FIG. 5E illustrates the mucoid alpha Streptococcus only on the experimental sample is Streptococcus pneumonia. Streptococcus pneumoniae not isolated using standard methods.
The patient had invasive pneumococcal disease as noted by a positive Streptococcus pneumoniae urine antigen result. This sample is most impressive in that the systems and methods described herein allowed isolation of Streptococcus pneumoniae despite the patient being on ceftriaxone for two days at the time of collection. The isolate is sensitive to ceftriaxone according to the sensitivity pattern. S in the Interpretation column of the tables below indicates sensitivity, and R indicates resistance.

MRSA [4] = test: Clinical course of intubated patient with MRSA in sputum, Example 4; format: in vivo, human; conditions: one patient, MRSA pneumonia, on ventilator
Text: as §2
FIG. 5N illustrates the yellow colony in the experimental site is obvious. The patient decompensated clinically to the point of near death until proper MRSA antibiotic therapy was initiated. Hypoxemia worsened and oxygen requirements increased prior to MRSA therapy.

[5] = 05 S. aureus, bone incubated 24 hours at 37 degrees Celsius

Row | Molecule | Interps (Klebsiella oxytoca) | MIC (Klebsiella oxytoca) [µg/mL] | MIC (S. aureus [1]; [5]) [µg/mL] | Interps (S. aureus [2]) | MIC (S. aureus [2]) [µg/mL] | Interps (MRSA [3]) | MIC (MRSA [3]) [µg/mL] | Interps (Staphylococcus aureus) | MIC (Staphylococcus aureus) [µg/mL] | other results
1 | NCC[C@H](O)C(=O)N[C@@H]1C[C@H](N)[C@@H](O[C@H]2O[C@H](CN)[C@@H](O)[C@H](O)[C@H]2O)[C@H](O)[C@H]1O[C@H]1O[C@H](CO)[C@@H](O)[C@H](N)[C@H]1O [Amikacin] | S | ≤ 16 | – | – | – | – | – | – | – | –
2 | CC1(C)S[C@@H]2[C@H](NC(=O)[C@H](N)c3ccccc3)C(=O)N2[C@H]1C(=O)O [Ampicillin] | R | > 16 | – | – | – | – | – | – | – | –
3 | Cc1nnc(SCC2=C(C(=O)O)N3C(=O)[C@@H](NC(=O)Cn4cnnn4)[C@H]3SC2)s1 [Cefazolin] | R | 8 (≈ 17.6 µM) | ≤ 4 | R | 16 (≈ 35.2 µM) | R | 8 (≈ 17.6 µM) | S | ≤ 4 | Interps (S. aureus [1]; [5]): S
4 | CO/N=C(\C(=O)N[C@@H]1C(=O)N2C(C(=O)[O-])=C(C[N+]3(C)CCCC3)CS[C@H]12)c1csc(N)n1 [Cefepime] | S | ≤ 2 | – | – | – | – | – | – | – | –
5 | CO/N=C(\C(=O)N[C@@H]1C(=O)N2C(C(=O)O)=C(COC(C)=O)CS[C@H]12)c1csc(N)n1 [Cefotaxime] | S | ≤ 2 | – | – | – | – | – | – | – | –
6 | CO[C@@]1(NC(=O)Cc2cccs2)C(=O)N2C(C(=O)O)=C(COC(N)=O)CS[C@@H]21 [Cefoxitin] | S | ≤ 8 | – | – | – | – | – | – | – | –
7 | CO/N=C(\C(=O)N[C@@H]1C(=O)N2C(C(=O)O)=C(CSc3nc(=O)c(=O)[nH]n3C)CS[C@H]12)c1csc(N)n1 [Ceftriaxone] | S | ≤ 1 | – | – | – | – | – | – | – | sensitivity of the organism (Klebsiella oxytoca): sensitive; sensitivity of the isolate according to the sensitivity pattern (S. Pneumoniae): sensitive; Interpretation (S. Pneumoniae): S; MIC (S. Pneumoniae): ≤ 0.25 µg/mL
8 | O=C(O)c1cn(C2CC2)c2cc(N3CCNCC3)c(F)cc2c1=O [Ciprofloxacin] | S | ≤ 1 | – | – | – | – | – | – | – | –
9 | CCC[C@@H]1C[C@@H](C(=O)N[C@@H]([C@H]2O[C@H](SC)[C@H](O)[C@@H](O)[C@H]2O)[C@H](C)Cl)N(C)C1 [Clindamycin] | – | – | ≤ 0.25 | R | > 4 | R | > 4 | S | ≤ 0.25 | Interps (S. aureus [1]; [5]): S; Interpretation (S. Pneumoniae): R; MIC (S. Pneumoniae): > 0.5 µg/mL
10 | CCCCCCCCCC(=O)N[C@@H](Cc1c[nH]c2ccccc12)C(=O)N[C@H](CC(N)=O)C(=O)N[C@@H](CC(=O)O)C(=O)N[C@@H]1C(=O)NCC(=O)N[C@@H](CCCN)C(=O)N[C@@H](CC(=O)O)C(=O)N[C@H](C)C(=O)N[C@@H](CC(=O)O)C(=O)NCC(=O)N[C@H](CO)C(=O)N[C@@H]([C@H](C)CC(=O)O)C(=O)N[C@@H](CC(=O)c2ccccc2N)C(=O)O[C@@H]1C [Daptomycin] | – | – | 0.5 (≈ 0.309 µM) | – | – | – | – | S | 0.5 (≈ 0.309 µM) | Interps (S. aureus [1]; [5]): S
11 | CC[C@H]1OC(=O)[C@H](C)[C@@H](O[C@H]2C[C@@](C)(OC)[C@@H](O)[C@H](C)O2)[C@H](C)[C@@H](O[C@@H]2O[C@H](C)C[C@H](N(C)C)[C@H]2O)[C@](C)(O)C[C@@H](C)C(=O)[C@H](C)[C@@H](O)[C@]1(C)O [Erythromycin] | – | – | – | – | – | – | – | – | – | Interpretation (S. Pneumoniae): R; MIC (S. Pneumoniae): > 0.5 µg/mL
12 | C[C@@H](O)[C@H]1C(=O)N2C(C(=O)O)=C(SCCN=CN)C[C@H]12 [Imipenem] | S | ≤ 0.5 | – | – | – | – | – | – | – | –
13 | C[C@H]1COc2c(N3CCN(C)CC3)c(F)cc3c(=O)c(C(=O)O)cn1c23 [Levofloxacin] | S | ≤ 0.25 | – | – | – | – | – | – | – | Interpretation (S. Pneumoniae): S; MIC (S. Pneumoniae): 1 µg/mL (≈ 2.77 µM)
14 | CC(=O)NC[C@H]1CN(c2ccc(N3CCOCC3)c(F)c2)C(=O)O1 [Linezolid] | – | – | 2 (≈ 5.93 µM) | S | 2 (≈ 5.93 µM) | S | 2 (≈ 5.93 µM) | S | 2 (≈ 5.93 µM) | Interps (S. aureus [1]; 24 h): S; clinical outcome of therapy (MRSA [4]): allowed the patient to come off the ventilator
15 | C[C@@H](O)[C@H]1C(=O)N2C(C(=O)O)=C(S[C@@H]3CN[C@H](C(=O)N(C)C)C3)[C@H](C)[C@H]12 [Meropenem] | S | ≤ 1 | – | – | – | – | – | – | – | –
16 | Cc1onc(-c2ccccc2)c1C(=O)N[C@@H]1C(=O)N2[C@@H]1SC(C)(C)[C@@H]2C(=O)O [Oxacillin] | – | – | ≤ 0.25 | R | > 2 | R | > 2 | S | ≤ 0.25 | Interps (S. aureus [1]; 24 h): S
17 | CO[C@H]1/C=C/O[C@@]2(C)Oc3c(C)c(O)c4c(O)c(c(/C=N/N5CCN(C)CC5)c(O)c4c3C2=O)NC(=O)/C(C)=C\C=C\[C@H](C)[C@H](O)[C@@H](C)[C@@H](O)[C@@H](C)[C@H](OC(C)=O)[C@@H]1C [Rifampin] | – | – | ≤ 1 | S | ≤ 1 | S | ≤ 1 | – | – | Interps (S. aureus [1]; 24 h): S
18 | CN(C)[C@@H]1C(O)=C(C(N)=O)C(=O)[C@@]2(O)C(O)=C3C(=O)c4c(O)cccc4[C@@](C)(O)[C@H]3C[C@@H]12 [Tetracycline] | S | ≤ 4 | – | S | ≤ 1 | S | ≤ 1 | R | – | Interps (S. aureus [1]; [5]): R
19 | NC[C@H]1O[C@H](O[C@H]2[C@H](O)[C@@H](O[C@H]3O[C@H](CO)[C@@H](O)[C@H](N)[C@H]3O)[C@H](N)C[C@@H]2N)[C@H](N)C[C@@H]1O [Tobramycin] | S | ≤ 1 | – | – | – | – | – | – | – | –
20 | CN[C@H](CC(C)C)C(=O)N[C@H]1C(=O)N[C@@H](CC(N)=O)C(=O)N[C@H]2C(=O)N[C@H]3C(=O)N[C@H](C(=O)N[C@H](C(=O)O)c4cc(O)cc(O)c4-c4cc3ccc4O)[C@H](O)c3ccc(c(Cl)c3)Oc3cc2cc(c3O[C@@H]2O[C@H](CO)[C@@H](O)[C@H](O)[C@H]2O[C@H]2C[C@](C)(N)[C@H](O)[C@H](C)O2)Oc2ccc(cc2Cl)[C@H]1O [Vancomycin] | – | – | 1 (≈ 0.69 µM) | S | 2 (≈ 1.38 µM) | S | 2 (≈ 1.38 µM) | S | 1 (≈ 0.69 µM) | Interps (S. aureus [1]; [5]): S; clinical outcome of therapy (MRSA [4]): allowed the patient to come off the ventilator; Interpretation (S. Pneumoniae): S; MIC (S. Pneumoniae): 0.25 µg/mL (≈ 0.173 µM)
21 | CC[C@H]1OC(=O)[C@H](C)[C@@H](O[C@H]2C[C@@](C)(OC)[C@@H](O)[C@H](C)O2)[C@H](C)[C@@H](O[C@@H]2O[C@H](C)C[C@H](N(C)C)[C@H]2O)[C@](C)(O)C[C@@H](C)CN(C)[C@H](C)[C@@H](O)[C@]1(C)O [azithromycin] | – | – | – | – | – | – | – | – | – | macrolide resistance of the isolate (S. Pneumoniae; inferred from macrolide resistance): resistant
22 | Gentamicin | S | ≤ 1 | ≤ 1 | S | ≤ 1 | S | ≤ 1 | S | ≤ 1 | Interps (S. aureus [1]; [5]): S
23 | Penicillin | – | – | – | – | – | – | – | – | – | Interpretation (S. Pneumoniae): S; MIC (S. Pneumoniae): ≤ 0.03 µg/mL
